Experimental data from a melting point compilation (Tetko et al.; mined from patent text by program, amines drawn as free bases though some values may be those of a salt).

| Compound | melting point [°C] |
| --- | --- |
| CCCCCC1CCc2cc(C(=O)Oc3ccc(CCCC)cc3)ccc2C1 (centres undefined) | 48.1 |
| C#CCOc1cc(-c2ncc(C(F)(F)F)cc2F)c(F)cc1Cl | 68 to 70 |
| C=CCNC(=O)N=C(O)c1cc(C(=O)O)ccc1C(=O)O | 230 to 232 |
| CCOc1c(Cc2c[nH]c3ccccc23)[nH]c(=O)c(CC(C)C)[n+]1[O-] | 192 to 193 |
| CN(Cc1ccccc1)c1nc2c(cc1C#N)C(=O)CC(C)(C)C2 | 97 to 99 |
| Cn1ccc2c3c(c(C(=O)O)cc21)C(=O)NC3=O | 313 to 318 |
| Cc1nc(COc2ccc(Cn3cc(CCC(=O)O)c(-c4ccccc4)c3)cc2)cs1 | 113 to 114 |
| COC(=O)SN(C(=O)NC(=O)c1c(F)cccc1F)c1ccc(Oc2ccc(C(F)(F)F)cc2Cl)cc1 | 108 to 109 |
| CC(=O)NCc1nc(-c2csc(N=C(N)N)n2)cs1 | 255 to 256 |
| CC(=O)Nc1cc(N2CCN(C(=O)OC(C)(C)C)CC2)ccc1S(=O)(=O)c1ccccc1 | 129 to 130 |
| CCOC(=O)COc1ccc(S(=O)(=O)CCNS(=O)(=O)c2ccccc2)cc1 | 86.5 to 88 |
| CCc1nc2c(N)nc3cc(CCNS(C)(=O)=O)ccc3c2n1CC(C)(C)O | 149 to 152 |
| Clc1ccc(CSCc2ccc(Cl)c(Cl)c2)cc1Cl | 98 to 99 |
| O=C(O)c1ccc(S(=O)(=O)Cc2c(O[C@H](Cn3ccnc3)c3ccccc3)ccc3c2CCCC3=O)cc1 | 250 |
| COc1cc(COc2nn(Cc3ccccc3)cc2C(N)=O)ccc1OCc1nc(-c2ccco2)oc1C | 160 to 161 |
| O[C@H](COc1cccc2[nH]ccc12)CN1CCC(c2c[nH]c3c(Cl)cccc23)CC1 | 186 to 189 |
| O=C(O)c1ccc(NCCCCCc2ccccc2)cc1 | 141 to 143 |
| COc1cc(N)c(Cl)cc1C(=O)NC1CC2CCCCN2C1 (centres undefined) | 192 to 193 |
| CS(=O)(=O)CC(=O)CCc1ccccc1 | 97.6 to 98.4 |
| Cc1c(Cc2cccc(C(F)(F)F)c2F)c2ccc(Cl)c(Cl)c2n1CCCNS(C)(=O)=O | 139 |
| Nc1ccc(Nc2cc3c(cc2Nc2ccc(N)cc2)C(=O)NC3=O)cc1 | 154 to 157 |
| Cn1nnnc1C(/C=C/[C@@H]1C[C@@H](O)CC(=O)O1)=C(c1ccc(F)cc1)c1ccc(F)cc1 | 104 to 106 |
| Cn1ncc(/C=C/C(=O)Nc2ccc(Cc3nn(C)c(=O)o3)cc2)c1-c1ccc(F)cc1 | 200 to 201 |
| Cc1cc(-n2ccnc2)c2cccc(OCc3c(Cl)ccc(S(=O)(=O)N4CCC[C@H]4C(=O)NCC4CCN(C(=O)OC(C)(C)C)CC4)c3Cl)c2n1 | 100 |
| CNC(=O)CNC(=S)c1cccnc1 | 135 to 137 |

| Compound | melting point [°C] |
| --- | --- |
| Cc1cc(O)c(SCC2CCCCC2)c(=O)o1 | 81.5 to 83 |
| COc1ccc(CN2CCN(CC(=O)N3CC=C(c4cccc(C(F)(F)F)c4)n4ncc(C#N)c43)CC2)cc1 | 151 to 153 |
| C#CCn1c(C(F)(F)F)c(C(C)O)sc1=O (racemic) | 77 to 78 |
| COC(=O)c1coc2cc(O)ccc12 | 200 to 201 |
| Nc1c(NCCCO)cccc1OCc1ccccc1 | 82 to 83 |
| CCOc1cc(Oc2ccc(S(C)(=O)=O)nc2)cc2cc(C3=NCC(CC(=O)NC)S3)[nH]c12 (centres undefined) | 224 to 225 |
| CCOC(=O)c1cnc(Nc2ccc(-n3cnc(C)c3)c(OC)c2)nc1-c1ccc(Cl)cc1 | 216 to 218 |
| CSC1=C(C#N)C(c2ccc(N(C)C)cc2)(c2cccnc2)C(=O)N1CCCN(C)C (centres undefined) | 90 to 91 |
| CCN(C1CC(C)(C)Oc2ccc(OCc3cc(OC)ccn3)cc21)S(C)(=O)=O (centres undefined) | 87 to 89 |
| O=C1NC(=S)SC1=Cc1ccc2c(c1)N(Cc1cccc(-c3ccncc3)c1)C(=O)CO2 | 297 to 299 |
| CC1([N+](=O)[O-])C(c2ccco2)CC(=C(C#N)C#N)CC1c1ccco1 (centres undefined) | 192 |
| CNC(=O)[C@H](O)C(C)(C)C | 60 to 62 |
| CC(C)(C)P(=O)(O)CCCN | 253 to 255 |
| CCOCc1nc2c(N)nc3cc(OCC(=O)N4CCOCC4)ccc3c2n1CC(C)(C)O | 209 to 211 |
| CCCC(=CC(=O)O)CCC | 20 |
| O=Cc1ccnc2ccc(Cl)cc12 | 152 to 153 |
| COCc1cccc(Cl)c1NC(=O)CC1c2ccccc2Oc2ccccc21 | 184 to 185 |
| OC(CCn1ccnc1)c1ccccc1 (centres undefined) | 106 to 108 |
| CN(C)Cc1ccccc1-c1ccc(N2CCc3c(C(F)(F)F)nn(-c4cccc(C(N)=O)c4)c3C2=O)cc1 | 259 |
| O=c1c2cc(Cl)ccc2nc2n1CCCC2=Cc1ccccc1 | 121 to 123 |
| Cc1ccc(CC2(O)CCN(CC3Cc4cc(O)ccc4N3)CC2)cc1 (racemic) | 90 to 94 |
| Cc1ccc(COC(=O)N2CCC[C@H]2C(=O)N[C@H](CO)C(C)C)cc1 | 122 to 124 |
| c1ccc(COc2ccc(Nc3ncnc4ncccc34)cc2)cc1 | 235 to 237 |
| FC(F)(F)c1ccc(/C=C/c2nc(COc3ccc(CCCn4ccnn4)cc3)co2)cc1 | 157 to 158 |
| Cc1nc2c(ncn2COCCO)c(=S)[nH]1 | 190 to 193 |

| Compound | melting point [°C] |
| --- | --- |
| O=C(Nc1cccc(Oc2ccccc2)c1)c1ccn2c1CSC2c1cccnc1 (centres undefined) | 144 |
| O=c1nc(N2CCN(Cc3ccccc3)CC2)sc2c([N+](=O)[O-])cc(C(F)(F)F)cc12 | 161 to 163 |
| C#CC1(O)CCC2C3=C(CCC21C)c1ccc(OC)cc1CC3 (centres undefined) | 133 to 137 |
| COC(=O)C1=C(O)c2cc(Cl)ccc2S(=O)(=O)N1C | 201 |
| Cc1cc2ncccn2n1 | 54 to 57 |
| CN(C)CCNC(=O)Cc1ccc(NC(=O)Cc2ccc([N+](=O)[O-])cc2)cc1 | 160 to 162 |
| CNc1nc(C#N)c(C#N)nc1NC(C)(C)C | > 250 |
| O=c1[nH]c2cc(Cl)ccc2c(=O)cc1NCCc1ccccc1 | 284 to 287 |
| O=C(Cl)c1ccc(CBr)cc1 | 56 to 58 |
| CCN1CCN(c2ccc([N+](=O)[O-])cc2OC)CC1 | 84 to 85 |
| CCOC(=O)c1c(C)cc2c(c1C)c(=O)n(-c1ccccc1Cl)c(=O)n2CCCN(C)C | 155 to 156 |
| CN(C)S(=O)(=O)c1ccc(C(F)(F)F)cc1S(N)(=O)=O | 189 to 191 |
| Cc1nc2c(c3c1[nH]c1ccc(Cl)cc13)C(=O)CC(C)(C)C2 | 244 to 246 |
| CC(C)(C)OC(=O)N1CCN(c2ccc(N3CC(CN=[N+]=[N-])OC3=O)cc2F)CC1 (centres undefined) | 101 to 104 |
| CCSCCCCCSCCCCC(=O)O | 49.5 to 50 |
| Clc1ccc(-c2ncsc2Cn2cncn2)c(Cl)c1 | 120 to 123 |
| COCCOCOc1c(C(C)(C)C)cc(C(=N)NN)cc1C(C)(C)C | 133 |
| Cc1cc(-c2ccc(OCc3ccncc3)cc2)cc2ccc(=O)[nH]c12 | 270 to 274 |
| CC(C)NCC(O)COc1ccc2ncsc2c1 (centres undefined) | 132 to 134 |
| CNC(=O)C1OC1C(=O)c1ccc(Cl)cc1 (centres undefined) | 160 to 161 |
| C1=C(c2ccccc2)CCN(Cc2cc3ccccc3[nH]2)C1 | 128 to 130 |
| CN(C(=O)c1cc2ccccc2[nH]1)C1N=C(c2ccccc2)c2ccccc2NC1=O (racemic) | 287 to 288 |
| COC(=O)C1CC(=O)N(Cc2ccccc2)C1c1c(Cl)cccc1Cl (centres undefined) | 97 to 102 |
| O=C(C=CCc1c[nH]c2ccccc12)NC(C(=O)OCc1ccccc1)C(=O)OCc1ccccc1 | 162 to 163 |
| NC(=O)CNC(=O)c1cccc(-c2cccc3cc(Cc4cccc(C(F)(F)F)c4)sc23)c1F | 135 to 136 |

| Compound | melting point [°C] |
| --- | --- |
| CC(NC(Nc1cc(F)cc(C(F)(F)F)c1)=C(C#N)S(C)(=O)=O)C(C)(C)C (centres undefined) | 183 to 185 |
| CC(C)(C)C#CC(O)(Cn1cncn1)C(C)(C)C (centres undefined) | 114 to 118 |
| CCn1nc(-c2c(-c3ccccc3)nn3ccc(OC)cc23)ccc1=O | 148 to 149 |
| O=C(CCN1C[C@@H](O)[C@H](Oc2ccccc2)C1)c1ccc(F)cc1 (relative stereo) | 77 to 80 |
| CCOc1ccc(OCc2ccc(OCc3nc(-c4ccccc4)oc3C)cc2)cc1CCC(=O)O | 129 to 130 |
| CN(c1cccc2cc(-c3ncc(CCC(=O)NN)s3)[nH]c12)S(=O)(=O)c1cccs1 | 224 to 226 |
| CC(C)c1cccc(C(C)C)c1NC(=O)NCC1(c2cc(C(F)(F)F)cc(C(F)(F)F)c2)CCCC1 | 165 to 168 |
| CCOc1cc(C#N)ccc1C(=O)Nc1cc(Cl)c(Cl)cc1N | 195 to 198 |
| COc1c(C)c(C)c(OC)c(N)c1N | 107 to 110 |
| C=CC[C@H](C(=O)NC)c1ccc(Cl)c(Cl)c1 | 104 to 105 |
| O=C(Nc1ccccc1Cl)Oc1ccc2c(c1)CCCN2 | 201 |
| c1ccc2c(N3CCOCC3)nc(N3CCOCC3)nc2c1 | 172 to 174 |
| CCOc1cc2ncc(C#N)c(NCc3cccc(Br)c3)c2cc1OCC | 156 to 159 |
| C=CC=CC(=O)Nc1cc2c(Nc3cccc(Br)c3)ncnc2cn1 | 210 to 215 |
| c1cn(CCCc2ccc(OCc3coc(C4CCCCC4)n3)cc2)cn1 | 46 to 47 |
| Cc1cc(CN2CCC(N(C)S(=O)(=O)c3ccc(Nc4nccc(Nc5ccc(F)c(C)c5)n4)cc3)CC2)[nH]n1 | 130 |
| CC(=O)ON1Cc2ccccc2C1=O | 69 to 71 |
| CC(CCC(O)C(C)(C)O)C1CCC2C3CC=C4CC(O)CCC4(C)C3CCC12C (centres undefined) | 195 to 199 |
| OCC1CN(Cc2ccccc2)CC=C1c1ccc(F)cc1 (single isomer, unassigned; (+)) | 68 to 68.5 |
| CN1C(O)=C(C(=O)Nc2ccc(Cl)cc2)c2ccsc2S1(=O)=O | 202 to 204 |
| CC12CC(=O)C3C(CCC4CC(O)CCC43C)C1CCC2C(=O)CCc1ccccn1 (centres undefined) | 179 to 180 |
| COCCN1CCN(C(=O)c2ccc3n2Cc2ccccc2N(C(=O)c2ccc(-c4ccccc4C(F)(F)F)c(C)c2)C3)CC1 | 140 to 144 |
| CS(=O)c1cc(O)ccc1-c1nc2cnccc2[nH]1 (centres undefined) | 215 |
| CC[C@@H]1C(=O)N(Cc2ccc(OC)cc2OC)[C@H]1CC(=O)O (relative stereo) | 131 |
